GI50 and TGI data for 12 molecules are collected here from PubChem BioAssay (NCI).

Among the test systems are HCC-2998 colon; SN12C renal; IGROV1 ovarian; M14 melanoma; COLO 205 colon; U251 CNS; HL-60(TB) leukemia; UACC-62 melanoma; HOP-62 NSCLC; SK-OV-3 ovarian.
Experiment in all cases: inhibition of tumour cell growth, NCI panel, 48 h

Where “and” joins values, the source holds several entries; their conditions need not be identical. Identical values can stand only once.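 These data come from cells grown in 96-well plates and exposed to compound for 48 hours at five concentrations. The concentration for 50% growth inhibition is given as GI50. Definition used: TGI = concentration required for complete inhibition of growth.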

As for `CCOc1cc2c(cc1O)/C(=N\O)C[C@@H]1[C@@H]2CC[C@]2(C)[C@@H](O)CC[C@@H]12`, the GI50 in the test with HCC-2998 colon is 1.63 µM; in the test on SN12C renal, 0.059 µM; in the test on IGROV1 ovarian it was 0.296 µM; in the test on M14 melanoma it was 0.041 µM; in the test on COLO 205 colon, 0.00176 µM; with U251 CNS, 0.0324 µM. In addition, the GI50 in the test on UACC-62 melanoma was 0.00607 µM. The TGI in the test on HCC-2998 colon was 9.51 µM and > 41.1 µM; in the test with SN12C renal, greater than 100 µM; in the test on IGROV1 ovarian, greater than 100 µM; in the test on M14 melanoma, greater than 100 µM; with U251 CNS, greater than 100 µM; in the test on HL-60(TB) leukemia, less than 0.0258 µM. The results for the TGI with UACC-62 melanoma and with HOP-62 NSCLC were 28.8 µM and greater than 100 µM, respectively.
Turning to `N#C/C(=C\c1ccc(O)c(O)c1)C(=O)NC1CCC(CC2CCC(NC(=O)/C(C#N)=C/c3ccc(O)c(O)c3)CC2)CC1` (stereo not drawn), the TGI in the test on HCC-2998 colon was 7.43 µM; in the test on SN12C renal it was 7.23 µM; in the test with SK-OV-3 ovarian, greater than 41.4 µM; in the test on M14 melanoma it was 6.83 µM; in the test with COLO 205 colon it was 2.51 µM; in the test on U251 CNS, 4.5 µM. Besides, the results for the TGI in the test on HL-60(TB) leukemia, with UACC-62 melanoma and in the test with HOP-62 NSCLC were 6.09 µM, 3.07 µM and 4.06 µM, respectively.
`C=CC(C=O)C1(O)CCOC(=O)/C1=C\N` (stereo not drawn): the GI50 in the test on HCC-2998 colon, in the test with SN12C renal, in the test on IGROV1 ovarian, in the test on SK-OV-3 ovarian, in the test on M14 melanoma and with COLO 205 colon was greater than 100 µM in each case. The GI50 with U251 CNS, with UACC-62 melanoma and with HOP-62 NSCLC was greater than 100 µM in each case. For the same molecule, the TGI in the test on HCC-2998 colon, in the test with SN12C renal, in the test on IGROV1 ovarian, with SK-OV-3 ovarian, with M14 melanoma and with COLO 205 colon was greater than 100 µM in each case. In addition, the TGI in the test with U251 CNS, in the test on UACC-62 melanoma and in the test on HOP-62 NSCLC was greater than 100 µM throughout.
With `O=C(CSC(c1ccccc1)c1ccccc1)N/N=C/c1cccc(Cl)c1`, the GI50 with HCC-2998 colon is 18.6 µM; with IGROV1 ovarian it was 15.2 µM; in the test on M14 melanoma, 15.3 µM; in the test on U251 CNS, 17.7 µM; in the test on HL-60(TB) leukemia it was 13.8 µM; in the test with UACC-62 melanoma, 16 µM. In the test on HOP-62 NSCLC, the GI50 was 17.3 µM. For the same molecule, the TGI with HCC-2998 colon came out at 32.6 µM; in the test with IGROV1 ovarian it was 28.8 µM; with M14 melanoma, 29 µM; with U251 CNS, 31.5 µM; in the test on HL-60(TB) leukemia, 33.9 µM; in the test with UACC-62 melanoma, 30.3 µM. This molecule also displayed a TGI with HOP-62 NSCLC of 31.6 µM.
For `Cc1ccc(C)c(NC(=O)NCc2ccc(Cl)cc2)c1`, the TGI in the test on SN12C renal was greater than 100 µM; with IGROV1 ovarian, greater than 100 µM; in the test with SK-OV-3 ovarian, 52.7 µM; in the test on M14 melanoma it was greater than 100 µM; with COLO 205 colon it was greater than 100 µM; with U251 CNS, greater than 100 µM. Also, the TGI with HL-60(TB) leukemia is greater than 100 µM; with UACC-62 melanoma, greater than 100 µM; in the test with HOP-62 NSCLC, 37 µM.
As to `Cc1cc(=O)[nH]o1`, the TGI in the test with HCC-2998 colon, with IGROV1 ovarian, with SK-OV-3 ovarian, in the test on M14 melanoma, in the test with COLO 205 colon and in the test with U251 CNS was greater than 100 µM each time. The TGI in the test on UACC-62 melanoma and in the test with HOP-62 NSCLC was greater than 100 µM in each case.
With `Cc1ccc(Nc2n[nH]c(=S)s2)cc1`, the TGI with HCC-2998 colon, in the test on SN12C renal, in the test with SK-OV-3 ovarian, in the test on M14 melanoma, in the test on COLO 205 colon and in the test on U251 CNS was greater than 100 µM throughout. Further, the TGI in the test with HL-60(TB) leukemia, in the test on UACC-62 melanoma and in the test on HOP-62 NSCLC was greater than 100 µM in each case.
With `COC(=O)C1=C(C(=O)OC)C23CC1C1C(C(=O)OC)=C(C(=O)OC)C12C1C=CC3C2C(=O)OC(=O)C21` (stereo not drawn), the TGI in the test with HCC-2998 colon was greater than 100 µM; in the test on SN12C renal, greater than 100 µM; in the test on IGROV1 ovarian, greater than 100 µM; in the test on M14 melanoma, greater than 100 µM; in the test on COLO 205 colon, 64.9 µM; in the test with U251 CNS it was greater than 100 µM. The TGI with HL-60(TB) leukemia, with UACC-62 melanoma and with HOP-62 NSCLC was greater than 100 µM throughout.
`CCCc1c[nH]c(-c2ccc(-c3cc(CCC)c(C=O)[nH]3)s2)c1`: the TGI in the test with SN12C renal is 30.2 µM; with IGROV1 ovarian, 45.5 µM; with SK-OV-3 ovarian it was 32.8 µM; with M14 melanoma, 24.5 µM; in the test on U251 CNS, 29.2 µM; in the test on HL-60(TB) leukemia, 49.8 µM. For the same molecule, the TGI with UACC-62 melanoma was 31.2 µM.
As for `OCC1OC(OCC(O)C(O)C(O)C(/C=N/Nc2ccccc2)=N/Nc2ccccc2)C(O)C(O)C1O` (stereo not drawn), the TGI with HCC-2998 colon, with SN12C renal, with IGROV1 ovarian, in the test on SK-OV-3 ovarian, in the test on M14 melanoma and in the test on COLO 205 colon was greater than 100 µM in each case. Also, the TGI with U251 CNS, with HL-60(TB) leukemia and in the test on HOP-62 NSCLC was greater than 100 µM in each case.
Take `O=C(Nc1cccc(Oc2nnc(Cl)c3ccccc23)c1)Nc1ccc(Cl)c(C(F)(F)F)c1`: the GI50 with HCC-2998 colon was 0.872 µM; in the test on SN12C renal, 0.941 µM; with IGROV1 ovarian it was 1.04 µM; in the test on SK-OV-3 ovarian, 2.66 µM; in the test with M14 melanoma it was 0.707 µM; in the test with COLO 205 colon, 0.97 µM. The GI50 is 1.31 µM in the test on U251 CNS, 0.372 µM with HL-60(TB) leukemia and 1.98 µM in the test with HOP-62 NSCLC. Also, the TGI turned out to be 3.48 µM with HCC-2998 colon; 3.85 µM in the test with SN12C renal; 5.85 µM in the test on IGROV1 ovarian; 6.7 µM in the test with SK-OV-3 ovarian; 3.16 µM in the test on M14 melanoma; 3.9 µM in the test with COLO 205 colon. Besides, the TGI was found to be 3.93 µM in the test on U251 CNS, 6.06 µM with HL-60(TB) leukemia and 5.75 µM in the test with HOP-62 NSCLC.
On to `CC(O)C(N=Cc1nc(-c2ccccc2)oc1O)C(=O)O` (stereo not drawn), for which the TGI with HCC-2998 colon, in the test with IGROV1 ovarian, with SK-OV-3 ovarian, in the test on M14 melanoma, in the test on COLO 205 colon and in the test with U251 CNS was greater than 100 µM in each case. Besides, the TGI in the test on UACC-62 melanoma and in the test with HOP-62 NSCLC was greater than 100 µM each time.
